Experimental data from ChEMBL document CHEMBL1201862, “PubChem BioAssay data set” (2004).
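Each compound was tested at five concentrations against cells in 96-well plates for 48 hours. GI50 marks 50% less growth.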 Active and inactive are the calls of the source. No stated cut-off is given here; in the data, active = GI50 up to about 1.1 µM and inactive = higher.

Key:
Assay in all cases: NCI anticancer screen, dose series, 48 h
SK-MEL-5 = test system: SK-MEL-5
SNB-19 = test system: SNB-19
SW-620 = test system: SW-620
MOLT-4 = test system: MOLT-4
OVCAR-3 = test system: OVCAR-3
XF498 = test system: XF498
RPMI-8226 = test system: RPMI-8226
SF-268 = test system: SF-268
CCRF-CEM = test system: CCRF-CEM
CAKI-1 = test system: CAKI-1
U-251 = test system: U-251
ACHN = test system: ACHN
HT-29 = test system: HT-29
HOP-92 = test system: HOP-92
HOP-18 = test system: HOP-18
HCT-116 = test system: HCT-116
M19-MEL = test system: M19-MEL
SK-MEL-28 = test system: SK-MEL-28
Malme-3M = test system: Malme-3M
SNB-75 = test system: SNB-75
SF-539 = test system: SF-539
DMS-273 = test system: DMS-273
K562 = test system: K562
DMS-114 = test system: DMS-114
OVCAR-8 = test system: OVCAR-8
786-0 = test system: 786-0
HOP-62 = test system: HOP-62
KM-20L2 = test system: KM-20L2
SNB-78 = test system: SNB-78
A498 = test system: A498
SN12C = test system: SN12C
UACC-62 = test system: UACC-62
EKVX = test system: EKVX
A549 = test system: A549
IGROV-1 = test system: IGROV-1
COLO 205 = test system: COLO 205
HCT-15 = test system: HCT-15
HCC 2998 = test system: HCC 2998

## NC(=O)c1ccccc1[N+](=O)[O-]
SK-MEL-5
  GI50: > 100 µM (inactive)
SNB-19
  GI50: > 100 µM (inactive)
SW-620
  GI50: > 100 µM (inactive)
MOLT-4
  GI50: > 100 µM (inactive)
OVCAR-3
  GI50: > 100 µM (inactive)
XF498
  GI50: > 100 µM (inactive)
RPMI-8226
  GI50: > 100 µM (inactive)
SF-268
  GI50: > 100 µM (inactive)
CCRF-CEM
  GI50: > 10 µM (inactive)
CAKI-1
  GI50: > 100 µM (inactive)
U-251
  GI50: > 100 µM (inactive)
ACHN
  GI50: > 100 µM (inactive)
HT-29
  GI50: > 100 µM (inactive)
HOP-92
  GI50: > 100 µM (inactive)
HOP-18
  GI50: > 100 µM (inactive)
HCT-116
  GI50: > 100 µM (inactive)
M19-MEL
  GI50: > 100 µM (inactive)
SK-MEL-28
  GI50: > 100 µM (inactive)
Malme-3M
  GI50: > 100 µM (inactive)
SNB-75
  GI50: > 100 µM (inactive)
SF-539
  GI50: > 100 µM (inactive)
DMS-273
  GI50: > 100 µM (inactive)
K562
  GI50: > 100 µM (inactive)
DMS-114
  GI50: > 100 µM (inactive)
OVCAR-8
  GI50: > 100 µM (inactive)
786-0
  GI50: > 100 µM (inactive)
HOP-62
  GI50: > 100 µM (inactive)
KM-20L2
  GI50: > 100 µM (inactive)
SNB-78
  GI50: > 100 µM (inactive)
A498
  GI50: > 100 µM (inactive)
SN12C
  GI50: > 100 µM (inactive)
UACC-62
  GI50: > 100 µM (inactive)
EKVX
  GI50: > 100 µM (inactive)
A549
  GI50: > 100 µM (inactive)
IGROV-1
  GI50: > 100 µM (inactive)
COLO 205
  GI50: > 100 µM (inactive)
HCT-15
  GI50: > 100 µM
HCC 2998
  GI50: > 100 µM (inactive)
